Experimental data: ChEMBL document CHEMBL1201862, “PubChem BioAssay data set” (2004)
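Cultured in 96-well plates, cells were exposed to test compound for 48 hours across five concentrations. Here, GI50 denotes the concentration required for 50% inhibition of growth.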 Activity calls are given as the source filed them. Cut-off read from the data, not from the text of the source: active = GI50 up to about 1.1 µM and inactive = higher.

Key:
Assay in all cases: NCI tumour cell line growth inhibition, 48 h
COLO 205 = tested on: COLO 205
DU-145 = tested on: DU-145
HCT-116 = tested on: HCT-116
HOP-62 = tested on: HOP-62
IGROV-1 = tested on: IGROV-1
MOLT-4 = tested on: MOLT-4
NCI-H226 = tested on: NCI-H226
OVCAR-3 = tested on: OVCAR-3
RXF 393 = tested on: RXF 393
SF-268 = tested on: SF-268
SK-MEL-5 = tested on: SK-MEL-5
SNB-75 = tested on: SNB-75
TK-10 = tested on: TK-10
UACC-62 = tested on: UACC-62
UO-31 = tested on: UO-31
HT-29 = tested on: HT-29
Malme-3M = tested on: Malme-3M
OVCAR-5 = tested on: OVCAR-5
SK-MEL-2 = tested on: SK-MEL-2

Measured: GI50

O=P1(c2ccccc2)C(c2ccccc2)CCC1c1ccccc1 (stereo unspecified)
inactive: COLO 205 66.7 µM | DU-145 > 100 µM | HCT-116 35.6 µM | HOP-62 > 100 µM | IGROV-1 82.6 µM | MOLT-4 32.2 µM | NCI-H226 91.8 µM | OVCAR-3 53 µM | RXF 393 96.8 µM | SF-268 > 100 µM | SK-MEL-5 37.2 µM | SNB-75 57.3 µM | TK-10 71 µM | UACC-62 50.7 µM | UO-31 66.1 µM

Cn1c(N)nc(-c2ccc(Cl)cc2)c1SSc1c(-c2ccc(Cl)cc2)nc(N)n1C
inactive: COLO 205 1.94 µM | DU-145 12.8 µM | HCT-116 4.23 µM | HOP-62 2.86 µM | HT-29 2.3 µM | IGROV-1 2.99 µM | MOLT-4 5.25 µM | Malme-3M 2.3 µM | NCI-H226 37.2 µM | OVCAR-3 1.82 µM | OVCAR-5 1.86 µM | RXF 393 2.43 µM | SF-268 2.77 µM | SK-MEL-2 17.8 µM | SK-MEL-5 1.82 µM | SNB-75 7.67 µM | TK-10 1.86 µM | UACC-62 2.3 µM | UO-31 1.85 µM

CC1OC23CCCCC2C(C#N)(C#N)C1(C#N)C(=N)O3 (stereo unspecified)
inactive: COLO 205 14.7 µM | DU-145 24.3 µM | HCT-116 16.6 µM | HT-29 27.1 µM | IGROV-1 19.6 µM | MOLT-4 23.2 µM | Malme-3M 20.4 µM | NCI-H226 > 100 µM | OVCAR-3 17.7 µM | OVCAR-5 22 µM | RXF 393 19.7 µM | SF-268 24.7 µM | SK-MEL-2 19.9 µM | SK-MEL-5 16.3 µM | SNB-75 38.3 µM | TK-10 22.5 µM | UACC-62 > 10 µM | UO-31 > 10 µM

CCOC(=O)Cc1csc(N/N=C2\C(=O)Nc3ccccc32)n1
inactive: COLO 205 28.6 µM | DU-145 76.7 µM | HCT-116 40.1 µM | HOP-62 36.5 µM | HT-29 42.6 µM | IGROV-1 17.4 µM | MOLT-4 29 µM | NCI-H226 30.2 µM | OVCAR-3 25.3 µM | OVCAR-5 > 100 µM | RXF 393 87.1 µM | SF-268 66.8 µM | SK-MEL-2 52.6 µM | SK-MEL-5 21.7 µM | SNB-75 28.2 µM | TK-10 > 100 µM | UACC-62 42.2 µM | UO-31 27.3 µM

COc1ccc(/C=C/c2nccc3ccccc23)cc1OC
inactive: COLO 205 > 10 µM | DU-145 > 10 µM | HCT-116 5.9 µM | HOP-62 > 10 µM | HT-29 4.05 µM | IGROV-1 > 10 µM | MOLT-4 4.52 µM | Malme-3M > 10 µM | NCI-H226 > 10 µM | OVCAR-3 9.2 µM | OVCAR-5 > 10 µM | RXF 393 > 10 µM | SF-268 > 10 µM | SK-MEL-2 > 10 µM | SK-MEL-5 6.21 µM | SNB-75 > 10 µM | TK-10 > 10 µM | UACC-62 > 10 µM

O=C(C1OC1c1ccc(Br)cc1O)C12CC3CC(CC(C3)C1)C2 (stereo unspecified)
inactive: DU-145 42 µM | HCT-116 14.9 µM | HOP-62 26.2 µM | HT-29 28.8 µM | IGROV-1 32 µM | MOLT-4 16.1 µM | Malme-3M 20 µM | NCI-H226 28.5 µM | OVCAR-3 31.5 µM | OVCAR-5 41.5 µM | RXF 393 21.7 µM | SF-268 31.7 µM | SK-MEL-5 19.5 µM | SNB-75 14.5 µM | TK-10 33.9 µM | UACC-62 15.5 µM | UO-31 13.2 µM

CSc1nc2c(c(N(C)C)n1)C=Nn1c(nc3ccccc31)S2
inactive: COLO 205 > 100 µM | DU-145 78 µM | HCT-116 57.7 µM | HOP-62 84.3 µM | HT-29 > 100 µM | IGROV-1 > 100 µM | MOLT-4 > 100 µM | Malme-3M 91 µM | NCI-H226 > 100 µM | OVCAR-3 > 100 µM | OVCAR-5 > 100 µM | RXF 393 29 µM | SF-268 60.4 µM | SK-MEL-2 > 100 µM | SK-MEL-5 52.1 µM | SNB-75 64.1 µM | TK-10 > 100 µM | UACC-62 83 µM | UO-31 51.1 µM

Cn1c(=O)n2n(c1=O)C1C(=CC2)C2C=CC1n1c(=O)n(C)c(=O)n12 (stereo unspecified)
inactive: COLO 205 > 100 µM | DU-145 > 100 µM | HCT-116 > 100 µM | HOP-62 > 100 µM | HT-29 > 100 µM | IGROV-1 > 100 µM | MOLT-4 > 100 µM | Malme-3M > 100 µM | NCI-H226 > 100 µM | OVCAR-3 > 100 µM | OVCAR-5 > 100 µM | RXF 393 > 100 µM | SF-268 > 100 µM | SK-MEL-2 > 100 µM | SK-MEL-5 > 100 µM | SNB-75 > 100 µM | TK-10 > 100 µM | UACC-62 > 100 µM | UO-31 > 100 µM

CCOC1OC(CO)C(O)CC1n1ccc(=O)[nH]c1=O (stereo unspecified)
inactive: COLO 205 > 100 µM | DU-145 > 100 µM | HCT-116 > 100 µM | HT-29 > 100 µM | IGROV-1 > 100 µM | Malme-3M > 100 µM | NCI-H226 > 100 µM | OVCAR-3 > 100 µM | OVCAR-5 > 100 µM | RXF 393 > 100 µM | SF-268 > 100 µM | SK-MEL-2 > 100 µM | SK-MEL-5 > 100 µM | SNB-75 > 100 µM | TK-10 > 100 µM | UACC-62 > 100 µM | UO-31 > 100 µM

C=CCCCCOC1C=CC(O)C(CO)O1 (stereo unspecified)
inactive: COLO 205 > 100 µM | DU-145 > 100 µM | HCT-116 > 100 µM | HOP-62 > 100 µM | HT-29 > 100 µM | IGROV-1 > 100 µM | MOLT-4 > 100 µM | Malme-3M > 100 µM | NCI-H226 > 100 µM | OVCAR-3 > 100 µM | OVCAR-5 > 100 µM | RXF 393 > 100 µM | SF-268 > 100 µM | SK-MEL-2 > 100 µM | SK-MEL-5 > 100 µM | TK-10 > 100 µM | UACC-62 > 100 µM | UO-31 > 100 µM

[N-]=[N+]=NC1=NNC2(C(=O)N1)c1ccccc1-c1ccccc12
inactive: COLO 205 > 100 µM | DU-145 > 100 µM | HCT-116 14.2 µM | HOP-62 > 100 µM | HT-29 > 100 µM | IGROV-1 > 100 µM | Malme-3M 18.1 µM | NCI-H226 > 100 µM | OVCAR-3 > 100 µM | OVCAR-5 > 100 µM | RXF 393 > 100 µM | SF-268 > 100 µM | SK-MEL-2 > 100 µM | SK-MEL-5 > 100 µM | SNB-75 > 100 µM | TK-10 > 100 µM | UACC-62 > 100 µM | UO-31 > 100 µM
